B1: Myoglobin: Human heart myoglobin obtained from Calbiochem (protein, UniProt P02144 2-154, looked up)
Myoglobin: GLSDGEWQLVLNVWGKVEADIPGHGQEVLIRLFKGHPETLEKFDKFKHLKSEDEMKASEDLKKHGATVLTALGGILKKKGHHEAEIKPLAQSHATKHKIPVKYLEFISECIIQVLQSKHPGDFGADAQGAMNKALELFRKDMASNYKELGFQG

How the values were obtained:
Myeloperoxidase = molecular target: T1, Myeloperoxidase (Homo sapiens, UniProt P05164); test: Inhibition of peroxidase activities with PS-1 by methimazole: Myeloperoxidase; format: biochemical; settings: 50 μmol/L methimazole, enzyme 1 μg/mL
T1 sequence (P05164 49-745): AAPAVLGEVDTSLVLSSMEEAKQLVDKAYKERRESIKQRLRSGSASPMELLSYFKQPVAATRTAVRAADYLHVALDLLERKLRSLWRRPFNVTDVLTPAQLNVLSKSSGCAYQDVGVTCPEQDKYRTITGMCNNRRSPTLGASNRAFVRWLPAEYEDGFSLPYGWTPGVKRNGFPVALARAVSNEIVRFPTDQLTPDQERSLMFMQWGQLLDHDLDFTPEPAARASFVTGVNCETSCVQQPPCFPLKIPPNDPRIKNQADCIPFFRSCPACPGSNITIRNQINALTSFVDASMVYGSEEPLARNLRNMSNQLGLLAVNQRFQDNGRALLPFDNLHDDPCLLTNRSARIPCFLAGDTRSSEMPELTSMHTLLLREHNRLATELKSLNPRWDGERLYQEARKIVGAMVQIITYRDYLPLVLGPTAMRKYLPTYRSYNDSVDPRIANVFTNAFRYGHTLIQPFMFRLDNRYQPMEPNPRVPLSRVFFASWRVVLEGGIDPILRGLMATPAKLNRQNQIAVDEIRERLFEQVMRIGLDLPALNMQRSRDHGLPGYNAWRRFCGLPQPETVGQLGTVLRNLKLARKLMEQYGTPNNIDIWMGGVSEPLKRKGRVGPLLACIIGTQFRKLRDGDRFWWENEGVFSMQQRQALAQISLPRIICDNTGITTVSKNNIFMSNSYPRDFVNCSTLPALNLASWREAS
Description: (§1) Urine samples were diluted 1:4 into distilled water to minimize inhibitory effects observed with hyperosmolal urines. Two μL of diluted urine were added to 12×75 mm polystyrene test tube containing 50 μL of the PS-1 solution. The tubes were incubated at 37° C. for 5 minutes. MPO activity was determined by chemiluminescence emission using a Turner TD-20e luminometer maintained at 37° C. Leukocyte counting was performed manually by using a hemacytometer chamber (Kova Glasstic slide, Hycor, Irvine, Calif.) on each urine sample to determine the number of cells/mL.
(§2) The reactivity of PS-1 with heme proteins was assessed to determine if this substrate had more restricted specificity. Materials and methods were according to the description above.
(§3) Several peroxidases were detected with PS-1 substrate including EPO, MPO, LPO, and TPO. Addition of 50 μmol/L methimazole, an inhibitor of EPO, reduces activities of EPO, TPO and LPO by >90%, while MPO was inhibited by less than about 50% (Table 6). The addition of methimazole to the PS-1 assay allows MPO activity to be detected selectively.

Eosinophil Peroxidase = molecular target: T2, Eosinophil Peroxidase (Homo sapiens, UniProt P11678); test: Inhibition of peroxidase activities with PS-1 by methimazole: Eosinophil Peroxidase; format: biochemical; settings: 50 μmol/L methimazole, enzyme 1 μg/mL
T2 sequence (P11678 140-715): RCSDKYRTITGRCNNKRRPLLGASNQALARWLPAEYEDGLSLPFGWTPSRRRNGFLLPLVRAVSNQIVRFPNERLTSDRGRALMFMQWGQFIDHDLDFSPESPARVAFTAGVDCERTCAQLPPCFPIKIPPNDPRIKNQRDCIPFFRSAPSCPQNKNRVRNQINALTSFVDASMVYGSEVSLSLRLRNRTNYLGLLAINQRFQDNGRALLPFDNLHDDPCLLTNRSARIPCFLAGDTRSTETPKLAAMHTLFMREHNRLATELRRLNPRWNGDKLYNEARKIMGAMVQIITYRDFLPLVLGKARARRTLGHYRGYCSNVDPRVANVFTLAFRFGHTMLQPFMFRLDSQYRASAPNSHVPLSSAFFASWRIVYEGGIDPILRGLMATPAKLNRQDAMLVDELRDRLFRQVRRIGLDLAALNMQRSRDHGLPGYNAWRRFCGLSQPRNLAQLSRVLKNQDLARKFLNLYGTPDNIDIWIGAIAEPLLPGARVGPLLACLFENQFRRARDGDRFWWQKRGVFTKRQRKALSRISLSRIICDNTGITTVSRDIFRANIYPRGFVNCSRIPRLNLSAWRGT
Description: as §1, §2, §3

Thyroid peroxidase = molecular target: T3, Thyroid peroxidase (Homo sapiens, UniProt P07202); test: Inhibition of peroxidase activities with PS-1 by methimazole: Thyroid peroxidase; format: biochemical; settings: 50 μmol/L methimazole, enzyme 1 μg/mL
T3 sequence (P07202 19-933): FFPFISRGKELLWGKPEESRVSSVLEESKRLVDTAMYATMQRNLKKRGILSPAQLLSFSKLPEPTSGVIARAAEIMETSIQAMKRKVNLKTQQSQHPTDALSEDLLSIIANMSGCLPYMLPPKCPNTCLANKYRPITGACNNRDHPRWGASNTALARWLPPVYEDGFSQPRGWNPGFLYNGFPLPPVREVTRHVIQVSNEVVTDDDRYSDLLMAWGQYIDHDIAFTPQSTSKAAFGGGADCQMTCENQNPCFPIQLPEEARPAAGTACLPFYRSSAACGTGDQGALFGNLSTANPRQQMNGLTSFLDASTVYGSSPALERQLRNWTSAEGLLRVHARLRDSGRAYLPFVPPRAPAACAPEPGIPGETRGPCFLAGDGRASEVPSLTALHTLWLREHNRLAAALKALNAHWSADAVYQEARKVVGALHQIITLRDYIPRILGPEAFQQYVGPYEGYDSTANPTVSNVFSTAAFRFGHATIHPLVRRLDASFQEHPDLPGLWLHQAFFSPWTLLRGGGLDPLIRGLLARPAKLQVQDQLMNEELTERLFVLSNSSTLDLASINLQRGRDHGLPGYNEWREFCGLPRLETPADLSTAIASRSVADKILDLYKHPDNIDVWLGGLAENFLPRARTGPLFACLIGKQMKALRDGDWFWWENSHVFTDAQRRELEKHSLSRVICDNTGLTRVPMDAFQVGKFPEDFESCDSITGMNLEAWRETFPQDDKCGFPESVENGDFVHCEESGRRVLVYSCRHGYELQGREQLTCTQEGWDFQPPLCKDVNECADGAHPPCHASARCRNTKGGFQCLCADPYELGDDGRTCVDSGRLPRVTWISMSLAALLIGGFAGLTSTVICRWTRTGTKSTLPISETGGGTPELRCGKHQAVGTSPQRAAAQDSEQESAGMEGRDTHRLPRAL
Description: as §1, §2, §3

Lactoperoxidase = Lactoperoxidase (Bos taurus, UniProt P80025); test: Inhibition of peroxidase activities with PS-1 by methimazole: Lactoperoxidase; format: biochemical; settings: 50 μmol/L methimazole, enzyme 1 μg/mL
Description: as §1, §2, §3

Hemoglobin = Hemoglobin (Homo sapiens, UniProt P68871+P69905); test: Inhibition of peroxidase activities with PS-1 by methimazole: Hemoglobin; format: biochemical; settings: 50 μmol/L methimazole, protein 1 μg/mL
Chain of Hemoglobin (P69905 whole entry): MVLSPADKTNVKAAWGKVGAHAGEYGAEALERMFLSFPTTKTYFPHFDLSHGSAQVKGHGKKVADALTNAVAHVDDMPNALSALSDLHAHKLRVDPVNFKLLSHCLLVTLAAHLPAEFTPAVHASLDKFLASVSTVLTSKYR
Chain of Hemoglobin (P68871 whole entry): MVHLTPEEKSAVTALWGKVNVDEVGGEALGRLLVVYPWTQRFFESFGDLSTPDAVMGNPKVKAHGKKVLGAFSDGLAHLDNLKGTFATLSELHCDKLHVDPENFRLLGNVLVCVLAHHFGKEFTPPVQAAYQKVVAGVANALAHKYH
Description: (§4) Centricon ultrafiltration filters were obtained from Amicon (Daven, Mass.). Polystyrene tubes (5.0 mL volume, 75×12 mm) used for the assay were manufactured by Sarstedt (Arlington Heights, Ill.). The chemiluminescent substrate, 7-dimethylamino-naphthalene-1,2-dicarbonic acid-hydrazide (7-DNH) was purchased from Boehringer Mannheim (Indianapolis, Ind.). PS-1 acridan substrate (solution A and solution B) was obtained from Lumigen Inc. (Southfield, Mich.). Dimethyl sulfoxide, cetyltrimethyl-ammonium chloride (CTAC) as a 25% liquid and glycerol were obtained from Aldrich Chemical Company Inc. (Milwaukee, Wis.). Tween-20 and Sodium Chloride were purchased from Fisher Scientific (Fair Lawn, N.J.). […]
(§5) Urine samples were diluted 1:4 into distilled water to minimize inhibitory effects observed with hyperosmolal urines. […] MPO activity was determined by chemiluminescence emission using a Turner TD-20e luminometer maintained at 37° C. […]
(§6) The reactivity of PS-1 with heme proteins was assessed to determine if this substrate had more restricted specificity. […]

Myoglobin = molecular target: T4, Myoglobin (Homo sapiens, UniProt P02144); test: Inhibition of peroxidase activities with PS-1 by methimazole: Myoglobin; format: biochemical; settings: 50 μmol/L methimazole, protein 1 μg/mL
T4 sequence (P02144 1-154): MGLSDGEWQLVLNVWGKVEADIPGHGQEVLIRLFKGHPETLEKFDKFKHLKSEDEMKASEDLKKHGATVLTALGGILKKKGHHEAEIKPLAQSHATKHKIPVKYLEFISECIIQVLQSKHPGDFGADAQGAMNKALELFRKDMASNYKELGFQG
Description: as §4, §5, §6

Hb = test: Interference studies in Hb assay (7-DNH chemiluminescence); format: biochemical, human; settings: level producing a signal equivalent to 3 RBC per high power field, fixed Hb concentration
Description: Numerous potential interfering substances, which either enhance or quench the signal generated by cyclic hydrazides, were evaluated. The effects of these potentially interfering substances on light emission was investigated at varying concentrations of the interfering composition. Assays were performed using serial dilutions of the potential interfering compositions in ultrafiltered urine at a fixed concentration of Hb. Comparisons of chemiluminescence emission were made between a reference solution (Hb in ultrafiltered urine) without added interfering compositions and solutions with added interferant.
Generally, the value of 3 RBC per high power field is the normal cutoff point.
Bilirubin and uric acid were examined as a possible negative interfering compositions because of their chemical structure which may quench energy emitted.

MPO = molecular target: T5, MPO (Homo sapiens, UniProt P05164); test: Effects of potential interfering substances in WBC (MPO, PS-1) assay; format: biochemical
T5 sequence (P05164 49-745): T1 sequence (P05164 49-745)
Description: as §1
Several possible interfering substances were added to urine and tested for inhibitory effects. Several common medications were also tested for potential inhibitory effects. […] Hb at concentrations of >10 μg/mL and Mb at concentrations >2 μg/mL were detected by the PS-1 substrate as the chemiluminescence emission was above the normal urine background. Samples grossly populated with bacteria caused slight inhibition of the MPO activity. Urine samples may contain many epithelial cells, casts, crystals, and numerous artifacts but none of these appear to interfere with the chemiluminescence emission from MPO.

[1] = Activity of hemoglobin and myoglobin (oxidation states of iron, standard curves) with 7-DNH; format: biochemical
Description: The effect of the oxidation state of the heme iron on chemiluminescence emission was evaluated. Equal concentrations of hemoglobin and myoglobin were used. Standard solutions of Hb and Mb at varying concentrations were assayed to evaluate their behavior in the reaction.
With the addition of dithionite to the lysing agent, all of the iron in hemoglobin is immediately converted to the ferrous oxidation which subsequently reacts with H2 O2 and the substrate to form product. OxyHb and oxyMb […] were made by reducing methemoglobin/metmyoglobin with sodium dithionite and then oxygenating each protein by subsequent passage through a Sephadex column. The oxidation of oxyHb/oxyMb to the ferry (Fe^+4) oxidation state was achieved by adding an excess of H2 O2 to the protein solutions.

Row | Molecule | Chemiluminescence with methimazole (Myeloperoxidase) [TLU] | inhibition at 50 µM (Myeloperoxidase) [%] | Chemiluminescence with methimazole (Eosinophil Peroxidase) [TLU] | inhibition at 50 µM (Eosinophil Peroxidase) [%] | Chemiluminescence with methimazole (Thyroid peroxidase) [TLU] | inhibition at 50 µM (Thyroid peroxidase) [%] | Chemiluminescence with methimazole (Lactoperoxidase) [TLU] | inhibition at 50 µM (Lactoperoxidase) [%] | Chemiluminescence with methimazole (Hemoglobin) [TLU] | inhibition at 50 µM (Hemoglobin) [%] | Chemiluminescence with methimazole (Myoglobin) [TLU] | inhibition at 50 µM (Myoglobin) [%] | Level of Interference (Hb) [µg/mL] | Level of Interference (Hb; listed as Mb) | Level of Interference (Hb; listed as myoglobin) | interference with PS-1 assay (MPO; Mb <2 μg/mL) | Interference (MPO; level giving signal equal to 5 WBC/high power field, highest tested: hemoglobin 250, myoglobin 200 μg/mL) [µg/mL] | reactivity of Mb relative to Hb (fold less reactive) ([1]; alternative source of Mb, 7-DNH) | activity compared to Hb ([1]; up to 4 μg/mL, FIG. 7)
1 | Cn1cc[nH]c1=S [Methimazole, methimazole] | 130 | 58 | 74 | > 90 | 0.1 | > 90 | 0.9 | > 90 | 0.8 | 9 | 1.9 | 39 | – | – | – | – | – | – | –
2 | B1 | – | – | – | – | – | – | – | – | – | – | – | – | > 3.8 | above 4 μg/mL | approximately 4 μg/mL | did not interfere | > 2 | about 30 -fold | very little activity

Source: patent US6087121A, “Chemiluminescent detection of heme proteins in biological samples” (Mayo Foundation for Medical Education and Research, priority 1999, dated 2000)
